In PubChem BioAssay AID248 (DTP/NCI, 2004):
Values joined by “and” are separate entries in the source; they are usually repeats but may differ in a detail not shown here. Equal entries are not always repeated. Inconclusive results and toxic doses are left out. Rule as the data show it: active = T/C of 150% or more; inactive = T/C below 125%.

System: L1210 leukemia ip in BDF1 mice, survival T/C
Experiment: NCI In Vivo Anticancer Drug Screen. Data for tumor model L1210 Leukemia (intraperitoneal) in B6D2F1 (BDF1) mice
Conditions: endpoint: mean survival time, higher = longer survival
Outline: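 Tumor was transplanted into mice, which were then dosed with test compound or vehicle alone. Survival was recorded for each group, and the treated figure was expressed relative to the control figure.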

[1] = dose: 100.0 mg/kg/injection, schedule: Q01DX001 (ip), vehicle: carboxymethylcellulose (CMC)
[2] = dose: 200.0 mg/kg/injection, schedule: Q01DX001 (ip), vehicle: carboxymethylcellulose (CMC)
[3] = dose: 100.0 mg/kg/injection, schedule: Q01DX009 (ip), vehicle: Klucel (hydroxypropylcellulose) (HPC)
[4] = dose: 200.0 mg/kg/injection, schedule: Q01DX009 (ip), vehicle: Klucel (hydroxypropylcellulose) (HPC)
[5] = dose: 400.0 mg/kg/injection, schedule: Q01DX009 (ip), vehicle: Klucel (hydroxypropylcellulose) (HPC)
[6] = dose: 100.0 mg/kg/injection, schedule: Q01DX009 (ip), vehicle: saline
[7] = dose: 200.0 mg/kg/injection, schedule: Q01DX009 (ip), vehicle: saline
[8] = dose: 400.0 mg/kg/injection, schedule: Q01DX009 (ip), vehicle: saline
[9] = dose: 100.0 mg/kg/injection, schedule: Q01DX001 (ip), vehicle: saline with Tween-80
[10] = dose: 100.0 mg/kg/injection, schedule: Q04DX003 (ip), vehicle: Klucel (hydroxypropylcellulose) (HPC)
[11] = dose: 200.0 mg/kg/injection, schedule: Q01DX001 (ip), vehicle: saline with Tween-80
[12] = dose: 200.0 mg/kg/injection, schedule: Q04DX003 (ip), vehicle: Klucel (hydroxypropylcellulose) (HPC)
[13] = dose: 400.0 mg/kg/injection, schedule: Q04DX003 (ip), vehicle: Klucel (hydroxypropylcellulose) (HPC)
[14] = dose: 100.0 mg/kg/injection, schedule: Q04DX002 (ip), vehicle: saline with Tween-80
[15] = dose: 200.0 mg/kg/injection, schedule: Q04DX002 (ip), vehicle: saline with Tween-80
[16] = dose: 400.0 mg/kg/injection, schedule: Q04DX002 (ip), vehicle: saline with Tween-80
[17] = dose: 100.0 mg/kg/injection, schedule: Q01DX009 (ip), vehicle: saline with Tween-80
[18] = dose: 100.0 mg/kg/injection, schedule: Q04DX003 (ip), vehicle: saline
[19] = dose: 200.0 mg/kg/injection, schedule: Q01DX009 (ip), vehicle: saline with Tween-80
[20] = dose: 200.0 mg/kg/injection, schedule: Q04DX003 (ip), vehicle: saline
[21] = dose: 400.0 mg/kg/injection, schedule: Q01DX009 (ip), vehicle: saline with Tween-80
[22] = dose: 400.0 mg/kg/injection, schedule: Q04DX003 (ip), vehicle: saline
[23] = dose: 400.0 mg/kg/injection, schedule: Q01DX001 (ip), vehicle: saline with Tween-80
[24] = dose: 100.0 mg/kg/injection, schedule: Q04DX002 (ip), vehicle: Klucel (hydroxypropylcellulose) (HPC)
[25] = dose: 200.0 mg/kg/injection, schedule: Q04DX002 (ip), vehicle: Klucel (hydroxypropylcellulose) (HPC)
[26] = dose: 400.0 mg/kg/injection, schedule: Q04DX002 (ip), vehicle: Klucel (hydroxypropylcellulose) (HPC)

Measured: T/C

O=C(Nc1ccc(C(=O)Nc2cccc(C3=NCCN3)c2)cc1)Nc1ccc(C(=O)Nc2cccc(C3=NCCN3)c2)cc1
inactive: dose: 3.75 mg/kg/injection, schedule: Q01DX Z (ip), vehicle: methylcellulose (MC) 101 % of control | dose: 3.8 mg/kg/injection, schedule: Q01DX Z (ip), vehicle: methylcellulose (MC) 100 % of control | dose: 7.5 mg/kg/injection, schedule: Q01DX Z (ip), vehicle: methylcellulose (MC) 97 % of control | dose: 15.0 mg/kg/injection, schedule: Q01DX Z (ip), vehicle: methylcellulose (MC) 106 % of control | dose: 30.0 mg/kg/injection, schedule: Q01DX Z (ip), vehicle: methylcellulose (MC) 118 % of control and 86 % of control | dose: 50.0 mg/kg/injection, schedule: Q01DX001 (ip), vehicle: carboxymethylcellulose (CMC) 103 % of control | [1] 120 % of control | dose: 120.0 mg/kg/injection, schedule: Q01DX Z (ip), vehicle: methylcellulose (MC) 124 % of control | [2] 120 % of control | dose: 225.0 mg/kg/injection, schedule: Q01DX009 (ip), vehicle: saline with Tween-80 117 % of control | dose: 340.0 mg/kg/injection, schedule: Q01DX009 (ip), vehicle: saline with Tween-80 88 % of control | dose: 400.0 mg/kg/injection, schedule: Q01DX001 (ip), vehicle: carboxymethylcellulose (CMC) 108 % of control

Clc1ccccc1C=Nc1cccc2ccccc12
inactive: [3] 121 % of control | [4] 104 % of control | [5] 107 % of control

CC(C)(C)NC(N)=O
inactive: [6] 100 % of control | [7] 97 % of control | [8] 100 % of control

CCOC(=O)C(C#N)C1CCCCC1 (centres undefined)
inactive: dose: 25.0 mg/kg/injection, schedule: Q01DX009 (ip), vehicle: Klucel (hydroxypropylcellulose) (HPC) 109 % of control | dose: 50.0 mg/kg/injection, schedule: Q01DX009 (ip), vehicle: Klucel (hydroxypropylcellulose) (HPC) 102 % of control | [9] 98 % of control | [3] 102 % of control | [10] 102 % of control | [11] 95 % of control | [12] 107 % of control | [13] 100 % of control

N#CC1SCCCS1
inactive: dose: 50.0 mg/kg/injection, schedule: Q01DX001 (ip), vehicle: Klucel (hydroxypropylcellulose) (HPC) 104 % of control | dose: 100.0 mg/kg/injection, schedule: Q01DX001 (ip), vehicle: Klucel (hydroxypropylcellulose) (HPC) 105 % of control | [14] 101 % of control | dose: 200.0 mg/kg/injection, schedule: Q01DX001 (ip), vehicle: Klucel (hydroxypropylcellulose) (HPC) 96 % of control | [15] 108 % of control | [16] 108 % of control

C1CCCC(=NN=C2CCCCCCC2)CCC1
inactive: [17] 89 % of control | [18] 95 % of control | [19] 93 % of control | [20] 89 % of control | [21] 89 % of control | [22] 95 % of control

CC1(C)N=C(N)N=C(N)N1c1ccc(CCCCc2ccccc2Cl)cc1
inactive: dose: 12.5 mg/kg/injection, schedule: Q01DX001 (ip), vehicle: Klucel (hydroxypropylcellulose) (HPC) 95 % of control | dose: 25.0 mg/kg/injection, schedule: Q01DX001 (ip), vehicle: Klucel (hydroxypropylcellulose) (HPC) 98 % of control

CC(C)=CCCC(C)C1CCC2C3CC=C4CC(O)CCC4(C)C3CCC12C (centres undefined)
inactive: [9] 91 % of control | [11] 95 % of control | [23] 95 % of control

Cc1[nH]c(N)nc(=S)c1CCC(=O)O
inactive: [3] 96 % of control | [10] 98 % of control | [4] 96 % of control | [12] 93 % of control | [5] 98 % of control | [13] 90 % of control

O=C(OCCCCCOC(=O)c1cccc([N+](=O)[O-])c1)c1cccc([N+](=O)[O-])c1
inactive: dose: 100.0 mg/kg/injection, schedule: Q01DX001 (ip), vehicle: other 93 % of control | dose: 200.0 mg/kg/injection, schedule: Q01DX001 (ip), vehicle: other 96 % of control | dose: 400.0 mg/kg/injection, schedule: Q01DX001 (ip), vehicle: other 95 % of control

O=C(O)COc1cccc2ccc(Cl)cc12
inactive: [24] 101 % of control | [25] 90 % of control | [26] 96 % of control

O=C1OC(=O)C2C3C=CC3C12 (centres undefined)
inactive: [24] 95 % of control | [25] 100 % of control | [26] 92 % of control

Cc1cc(C)c(O)c(Br)c1
inactive: [14] 103 % of control | [15] 96 % of control | [16] 107 % of control

CCCC[n+]1ccc(C(N)=O)cc1
inactive: [18] 100 % of control | [20] 100 % of control

COc1cccc(NC(=S)NNC(=S)NNc2ccccc2)c1
inactive: [3] 108 % of control | [4] 100 % of control | [5] 100 % of control

Cc1ccc(S(=O)(=O)C[n+]2cc(C)cc(C)c2)cc1
inactive: [18] 95 % of control | [20] 103 % of control

CC(=O)c1sc2sc(C(C)=O)c(NC(=S)Nc3ccccc3Cl)c2c1NC(=S)Nc1ccccc1Cl
inactive: [3] 97 % of control | [4] 96 % of control | [5] 94 % of control

O=C(Nc1cccc(F)c1)Nc1cc(C(F)(F)F)ccc1Cl
inactive: dose: 50.0 mg/kg/injection, schedule: Q01DX009 (ip), vehicle: saline with Tween-80 96 % of control | [17] 95 % of control and 97 % of control | [19] 96 % of control | [21] 88 % of control

N#C/C(=C\C1CC(Br)CC(Br)C1O)C1CCC([N+](=O)[O-])CC1 (centres undefined)
inactive: [14] 90 % of control | [15] 90 % of control | [16] 93 % of control

O=C(O)C1C2CCC1C(O)C2 (centres undefined)
inactive: [9] 107 % of control | [11] 94 % of control | [23] 97 % of control

O=[N+]([O-])c1ccc(N=C(Cl)c2cc(N3CCOCC3)ccn2)cc1
inactive: dose: 100.0 mg/kg/injection, schedule: Q01DX001 (ip), vehicle: saline 94 % of control | dose: 200.0 mg/kg/injection, schedule: Q01DX001 (ip), vehicle: saline 94 % of control | dose: 400.0 mg/kg/injection, schedule: Q01DX001 (ip), vehicle: saline 95 % of control

Cc1cc(O)[nH]c(=O)c1
inactive: dose: 5.0 mg/kg/injection, schedule: Q01DX001 (ip), vehicle: saline 105 % of control | dose: 10.0 mg/kg/injection, schedule: Q01DX001 (ip), vehicle: saline 105 % of control | dose: 20.0 mg/kg/injection, schedule: Q01DX001 (ip), vehicle: saline 100 % of control | dose: 40.0 mg/kg/injection, schedule: Q01DX001 (ip), vehicle: saline 105 % of control | dose: 80.0 mg/kg/injection, schedule: Q01DX001 (ip), vehicle: saline 100 % of control

CC(c1ccc2ccccc2c1)c1ccccc1C(=O)O (centres undefined)
inactive: dose: 100.0 mg/kg/injection, schedule: Q01DX001 (ip), vehicle: gum acacia 94 % of control | dose: 200.0 mg/kg/injection, schedule: Q01DX001 (ip), vehicle: gum acacia 102 % of control | dose: 400.0 mg/kg/injection, schedule: Q01DX001 (ip), vehicle: gum acacia 89 % of control

CC(C)(CCC(C)(C)NCCC#N)NCCC#N
inactive: dose: 50.0 mg/kg/injection, schedule: Q01DX009 (ip), vehicle: saline 104 % of control | [6] 104 % of control | [18] 105 % of control | [7] 105 % of control | [20] 103 % of control | [8] 101 % of control | [22] 95 % of control

CC(=O)C(C(C)=O)C1C=CCC1 (centres undefined)
inactive: dose: 100.0 mg/kg/injection, schedule: Q04DX003 (ip), vehicle: saline with Tween-80 96 % of control | dose: 200.0 mg/kg/injection, schedule: Q04DX003 (ip), vehicle: saline with Tween-80 107 % of control | dose: 400.0 mg/kg/injection, schedule: Q04DX003 (ip), vehicle: saline with Tween-80 89 % of control

Nc1c(Cl)ncnc1NC1CCC(CO)C1 (centres undefined)
inactive: [1] 103 % of control | [2] 106 % of control
